Read-outs that look alike come from different tables or passages of the source.
Assays:
[1] = system: P. cynomolgi; test: In vitro P. cynomolgi liver stage assay in primary rhesus monkey hepatocytes; format: cell-based; conditions: Plasmodium cynomolgi, Hepatocyte, in Macaca mulatta
Description: An in vitro P. cynomolgi liver stage assay was performed as described in Zeeman et al. Antimicrobial Agents and Chemotherapy, 2014, 58:1586-1595. 96-well plates are seeded with freshly isolated or thawed cryopreserved stocks of primary rhesus monkey hepatocytes one or two days before infection with 5×10^4 freshly dissected P. cynomolgisporozoites per well. After 2-3 h of sporozoite invasion into the hepatocytes, culture medium is exchanged for culture medium containing appropriate compound dilutions. Initially, compounds are tested in duplicate in 3 dilutions: 0.1, 1 and 10 μM. Plates are incubated for 6 days with medium exchange (including compound dilutions) every other day. Plates are fixed in methanol and parasites are stained with rabbit anti-PcyHSP70 antiserum in the presence of DAPI to stain the nuclei. Plates are automatically counted in a high-content imager (Operetta®) and small parasites (hypnozoites, s.f.) and large schizonts (I.f.) are recorded, as well as number of hepatocytes as a measure for cytotoxic effects of the compounds. Controls include uninfected hepatocytes, sporozoite infected wells without compound and infected wells with primaquine and atovaquone. When activity is recorded and reported, a more extensive dilution curve can be evaluated: a 7-point 3-fold dilution series from days 0-6.

[2] = system: P. falciparum 7G8; test: In vitro P. falciparum blood-stage assay, strain 7G8; format: cell-based; conditions: Plasmodium falciparum
Description: (§1) Strains of Plasmodium falciparum (Dd2, 3D7, D6, K1, NF54, V1/3, HB3, 7G8, FCB, TM90C2B) were obtained from Malaria Research and Reference Reagent Resource Center (MR4). P. falciparum isolates were maintained with O-positive human blood in an atmosphere of 93% N2, 4% CO2, 3% O2 at 37° C. in complete culturing medium (10.4 g/L RPMI 1640, 5.94 g/L HEPES, 5 g/L albumax II, 50 mg/L hypoxanthine, 2.1 g/L sodium bicarbonate, 10% human serum and 43 mg/L gentamicin). Parasites were cultured in medium until the parasitemia reached 3-8%. Parasitemia was determined by checking at least 500 red blood cells from a Giemsa-stained blood smear. For the compound screening, a parasite suspension at 2.0% parasitemia and 2.0% hematocrit was created with medium. 25 μl of medium was dispensed into 384-well, black, clear-bottom plates. 100 nl of compounds in DMSO was transferred into the assay plates along with control compound (mefloquine). Next, 25 μl of the parasite suspension in medium was dispensed into the assay plates such that the final parasitemia was 1% and the final hematocrit was 1%. The assay plates were incubated for 72 hours at 37° C. […] The assay plates were read with 505 dichroic mirrors with 485-nm excitation and 530-nm emission settings.

[3] = system: P. falciparum asexual erythocytic stage; test: Erythrocytic stage, asexual (P. falciparum); format: cell-based; conditions: Plasmodium falciparum
Description: as §1

[4] = system: P. berghei (ANKA GFP-luc) sporozoites; test: In vivo P. berghei liver-stage assay; design: species or system CD-1 mice; conditions: orally at 50 mg/kg two hours after sporozoite inoculation
Description: CD-1 mice (n=4 per experimental group; female; 6-7-week-old; 20-24 g) were inoculated intravenously with 1×10^5 freshly isolated P. berghei(ANKA GFP-luc) sporozoites intravenously, and compounds were administered orally at 50 mg/kg two hours later. Bioluminescence signals from the transgenic parasites were monitored by the In vivo Imaging System (IVIS 100, Xenogen; Caliper Life Sciences). Animals with parasitemia exceeding 20% were euthanized.

[5] = system: P. berghei (ANKA GFP-luc) blood stage parasites; test: In vivo P. berghei blood-stage assay; design: species or system CD-1 mice; conditions: 50 mg/kg 4x, p.o., T/E
Description: CD-1 mice (n=4 per experimental group; female; 6-7-week-old; 20-24 g) were inoculated with 1×10^6 P. berghei (ANKA GFP-luc) blood stage parasites intravenously 24 hours before treatment and compounds were administered orally (at 0 hour). Parasitemia was monitored by the In vivo Imaging System (IVIS 100, Xenogen; Caliper Life Sciences) to acquire the bioluminescence signal. In addition, blood smear samples were obtained from each mouse on day 4 after inoculation, stained with Giemsa, and viewed under a microscope for visual detection of blood parasitemia. Animals with parasitemia exceeding 20% were euthanized.

[6] = system: P. falciparum FCB; test: In vitro P. falciparum blood-stage assay, strain FCB; format: cell-based; conditions: Plasmodium falciparum
Description: as §1

COc1ccc2c3c([nH]c2c1)[C@H](CO)N(C(C)=O)CC31CCN(C(=O)Nc2ccccc2F)CC1 [Compound 15, (R)-2′-acetyl-N-(2-fluorophenyl)-1′-(hydroxymethyl)-7′-methoxy-1′,2′,3′,9′-tetrahydrospiro [piperidine-4,4′-pyrido[3,4-b]indole]-1-carboxamide]
IC50 ([1]; large schizonts (l.f.), read-out: IC50 exo-erythrocytic stage P. cynomolgi (l.f)): 832 nM
IC50 ([1]; small parasites (hypnozoites, s.f.), read-out: IC50 exo-erythrocytic stage P. cynomolgi (s.f)): 344 nM
IC50 [2]: 113 nM
IC50 [3]: 64 nM
Parasitemia of treated animals (untreated controls: systemic parasitemia by day four) [4]: remained parasite free
Inhibition of the liver stage of P. berghei in vivo (FIG. 1) ([4]; bioluminescence): inhibit the liver stage
% Activity [5]: 94.20%
% of control [5]: 5.80%
Avg. Mouse survival [5]: 6.3 days
Mouse survival in days, M1 ([5]; mouse M1): 6 days
Parasitized RBC over 100, M1 ([5]; mouse M1): 3.70
Mouse survival in days, M2 ([5]; mouse M2): 6 days
Parasitized RBC over 100, M2 ([5]; mouse M2): 3.20
Mouse survival in days, M3 ([5]; mouse M3): 7 days
Parasitized RBC over 100, M3 ([5]; mouse M3): 2.80
IC50 [6]: 130 nM

Source: patent US9428507B2, “Compounds for the treatment of malaria” (The Broad Institute, Inc., priority 2013, dated 2016)
